From ChEMBL document CHEMBL3046629, “Fungicidal Activities of 2-Methoxy-2-[2-(benzylideneaminooxymethyl)phenyl]-N-methylacetamide Derivatives” (2002)
Calls of active or inactive are those of the source. The calls are words filed in the database; no cut-off is given here.

How the values were obtained:
[1] = test system: Pseudoperonospora cubensis; assay: Fungicidal activity against Pseudoperonospora cubensis assessed as cucumber downy mildew disease control at 500 ppm foliar application 24 hr before inoculation onto the abaxial(treated) surface of leaf by preventive manner; assay type: functional
[2] = test system: Pseudoperonospora cubensis; assay: Fungicidal activity against Pseudoperonospora cubensis assessed as cucumber downy mildew disease control at 500 ppm foliar application 24 hr before inoculation onto the adaxial(treated) surface of leaf by preventive manner; assay type: functional
[3] = test system: Botrytis cinerea; assay: Fungicidal activity against Botryotinia fuckeliana assessed as cucumber gray mold disease control at 125 ppm treated on upper surface of leaf 24 hr before inoculation at 22 +/- 2 degC measured after 3 days by preventive manner; assay type: functional
[4] = test system: Podosphaera fuliginea; assay: Fungicidal activity against Podosphaera fuliginea assessed as cucumber powdery mildew disease control at 500 ppm treated on upper surface of leaf 24 hr before inoculation at 23 +/- 2 degC measured after 10 days by preventive manner; assay type: functional
[5] = test system: Pseudoperonospora cubensis; assay: Fungicidal activity against Pseudoperonospora cubensis assessed as cucumber downy mildew disease control at 31.3 ppm foliar application 24 hr before inoculation onto the abaxial(treated) surface of leaf by preventive manner; assay type: functional
[6] = test system: Pseudoperonospora cubensis; assay: Fungicidal activity against Pseudoperonospora cubensis assessed as cucumber downy mildew disease control at 7.8 ppm foliar application 24 hr before inoculation onto the adaxial(treated) surface of leaf by preventive manner; assay type: functional
[7] = test system: Podosphaera fuliginea; assay: Fungicidal activity against Podosphaera fuliginea assessed as cucumber powdery mildew disease control at 7.8 ppm treated on upper surface of leaf 24 hr before inoculation at 23 +/- 2 degC measured after 10 days by preventive manner; assay type: functional
[8] = test system: Pseudoperonospora cubensis; assay: Fungicidal activity against Pseudoperonospora cubensis assessed as cucumber downy mildew disease control at 125 ppm foliar application 24 hr before inoculation onto the abaxial(treated) surface of leaf by preventive manner; assay type: functional
[9] = test system: Phytophthora infestans; assay: Fungicidal activity against Phytophthora infestans assessed as potato late blight disease suppression in field at 100 ppm following 4 applications at 1 week intervals; assay type: functional, organism-based
[10] = test system: Pseudoperonospora cubensis; assay: Fungicidal activity against Pseudoperonospora cubensis assessed as cucumber downy mildew disease control in field at 100 ppm measured after 9 days of last application; assay type: functional
[11] = test system: Pseudoperonospora cubensis; assay: Fungicidal activity against Pseudoperonospora cubensis assessed as cucumber downy mildew disease control in field at 25 ppm measured after 9 days of last application; assay type: functional
[12] = test system: Pseudoperonospora cubensis; assay: Fungicidal activity against Pseudoperonospora cubensis assessed as cucumber downy mildew disease control at 2 ppm foliar application 24 hr after inoculation by curative manner; assay type: functional
[13] = test system: Pseudoperonospora cubensis; assay: Fungicidal activity against Pseudoperonospora cubensis assessed as cucumber downy mildew disease control at 7.8 ppm foliar application 24 hr after inoculation by curative manner; assay type: functional
[14] = test system: Pseudoperonospora cubensis; assay: Fungicidal activity against Pseudoperonospora cubensis assessed as cucumber downy mildew disease control at 31.3 ppm foliar application 24 hr after inoculation by curative manner; assay type: functional
[15] = test system: Pseudoperonospora cubensis; assay: Fungicidal activity against Pseudoperonospora cubensis assessed as cucumber downy mildew disease control at 125 ppm foliar application 24 hr after inoculation by curative manner; assay type: functional
[16] = test system: Pseudoperonospora cubensis; assay: Fungicidal activity against Pseudoperonospora cubensis assessed as cucumber downy mildew disease control at 2 ppm foliar application 24 hr before inoculation onto the abaxial(treated) surface of leaf by preventive manner; assay type: functional
[17] = test system: Pseudoperonospora cubensis; assay: Fungicidal activity against Pseudoperonospora cubensis assessed as cucumber downy mildew disease control at 7.8 ppm foliar application 24 hr before inoculation onto the abaxial(treated) surface of leaf by preventive manner; assay type: functional
[18] = test system: Pseudoperonospora cubensis; assay: Fungicidal activity against Pseudoperonospora cubensis assessed as cucumber downy mildew disease control at 2 ppm foliar application 24 hr before inoculation onto the adaxial(treated) surface of leaf by preventive manner; assay type: functional
[19] = test system: Pseudoperonospora cubensis; assay: Fungicidal activity against Pseudoperonospora cubensis assessed as cucumber downy mildew disease control at 125 ppm foliar application 24 hr before inoculation onto the adaxial(treated) surface of leaf by preventive manner; assay type: functional
[20] = test system: Pseudoperonospora cubensis; assay: Fungicidal activity against Pseudoperonospora cubensis assessed as cucumber downy mildew disease control at 31.3 ppm foliar application 24 hr before inoculation onto the adaxial(treated) surface of leaf by preventive manner; assay type: functional
[21] = test system: Botrytis cinerea; assay: Fungicidal activity against Botryotinia fuckeliana assessed as cucumber gray mold disease control at 31.3 ppm treated on upper surface of leaf 24 hr before inoculation at 22 +/- 2 degC measured after 3 days by preventive manner; assay type: functional
[22] = test system: Podosphaera fuliginea; assay: Fungicidal activity against Podosphaera fuliginea assessed as cucumber powdery mildew disease control at 31.3 ppm treated on upper surface of leaf 24 hr before inoculation at 23 +/- 2 degC measured after 10 days by preventive manner; assay type: functional
[23] = test system: Botrytis cinerea; assay: Fungicidal activity against Botryotinia fuckeliana assessed as cucumber gray mold disease control at 7.8 ppm treated on upper surface of leaf 24 hr before inoculation at 22 +/- 2 degC measured after 3 days by preventive manner; assay type: functional
[24] = test system: Botrytis cinerea; assay: Fungicidal activity against Botryotinia fuckeliana assessed as cucumber gray mold disease control at 500 ppm treated on upper surface of leaf 24 hr before inoculation at 22 +/- 2 degC measured after 3 days by preventive manner; assay type: functional
[25] = test system: Podosphaera fuliginea; assay: Fungicidal activity against Podosphaera fuliginea assessed as cucumber powdery mildew disease control at 125 ppm treated on upper surface of leaf 24 hr before inoculation at 23 +/- 2 degC measured after 10 days by preventive manner; assay type: functional
[26] = test system: Pseudoperonospora cubensis; assay: Fungicidal activity against Pseudoperonospora cubensis assessed as cucumber downy mildew disease control in field at 400 ppm measured after 9 days of last application; assay type: functional

Structure (SMILES)	Activity [1]	Activity [2]	Activity [3]	Activity [5]	Activity [6]	Activity [7]	Activity [8]	Activity [10]	Activity [12]	Activity [13]	Activity [14]	Activity [15]	Activity [16]	Activity [17]	Activity [18]	Activity [19]	Activity [20]	also measured
CNC(=O)C(OC)c1ccccc1CO/N=C(\C)c1ccc([N+](=O)[O-])cc1 (racemic)	<90%	90%	50%															Activity [4]: 90%
CCC/C(=N\OCc1ccccc1C(OC)C(=O)NC)c1ccc(Cl)cc1 (racemic)			50%	90%	90%	90%												
CNC(=O)C(OC)c1ccccc1CO/N=C(/SC)c1ccc(C(F)(F)F)cc1 (racemic)	100%	100%	50%	99%	100%	90%	97%	96.1%	50%	79%	95%	95%	25%	192%	100%	100%	100%	inhibition [9]: Active; Activity [11]: 62.3%
CNC(=O)C(OC)c1ccccc1CO/N=C(/SC)c1ccc(OC)cc1 (racemic)	90%	96%	50%	40%	99%		64%		25%	25%	65%	95%	25%	25%	90%	100%	100%	Activity [4]: <90%
CNC(=O)C(OC)c1ccccc1CO/N=C(/SC)c1ccc(OC(F)F)cc1 (racemic)	100%	100%		80%	100%		100%	81.6%	30%	40%	65%	78%	60%	80%	100%	100%	100%	Activity [11]: 71.4%; Activity [21]: 50%; Activity [22]: 90%
CNC(=O)C(OC)c1ccccc1CO/N=C(\C)c1ccc(OC(F)F)cc1 (racemic)	97%	97%		90%	97%	90%	95%	52.6%	25%	70%	75%	75%	30%	65%	97%	97%	97%	Activity [23]: 50%
CNC(=O)C(OC)c1ccccc1CO/N=C(\C)c1ccc(OC)cc1 (racemic)	90%	100%		0%	0%		50%		0%	0%	20%	75%	0%	0%	0%	100%	100%	Activity [23]: 50%; Activity [22]: 90%
CNC(=O)C(OC)c1ccccc1COc1ccccc1 (racemic)	<90%	<90%																Activity [24]: <50%; Activity [25]: 90%
N#Cc1c(Cl)c(Cl)c(Cl)c(C#N)c1Cl [CHLOROTHALONIL]																		Activity [26]: 55.3%
